Measurements published in patent publication US6911550B2, “Derivatives of seleno-amino acids with improved bioavailability and method for their preparation” (priority 2003, dated 2005).
Counter-ions that a name gives are not always drawn.

What was measured:
glutathione peroxidase [1] = experiment: Glutathione peroxidase activity in selenium-depleted lambs fed selenium sources; format: in vivo; details: for Whole blood glutathione peroxidase activity, difference between selenium sources / Plasma glutathione peroxidase activity compared with sodium selenite / Glutathione peroxidase activities in kidney, liver, and muscle compared to sodium selenite: lambs; for Whole blood glutathione peroxidase activity, difference between selenium sources: day 14; for Plasma glutathione peroxidase activity compared with sodium selenite: day 28, 0.05 ppm Se; for Glutathione peroxidase activities in kidney, liver, and muscle compared to sodium selenite: supplemented for 56 days; for Relative bioavailability based on glutathione peroxidase activity, Plasma, day 14 / Relative bioavailability based on glutathione peroxidase activity, Plasma, day 28 / Relative bioavailability based on glutathione peroxidase activity, Heart / Relative bioavailability based on glutathione peroxidase activity, Kidney / Relative bioavailability based on glutathione peroxidase activity, Liver / Relative bioavailability based on glutathione peroxidase activity, Muscle: sheep, po; for Relative bioavailability based on glutathione peroxidase activity, Plasma, day 14: 14 days; for Relative bioavailability based on glutathione peroxidase activity, Plasma, day 28: 28 days; for Relative bioavailability based on glutathione peroxidase activity, Heart / Relative bioavailability based on glutathione peroxidase activity, Kidney / Relative bioavailability based on glutathione peroxidase activity, Liver / Relative bioavailability based on glutathione peroxidase activity, Muscle: 56 days
Source text: (§1) […] lambs with average weight of 18.5 kg were used. […] Lambs were weaned at approximately two months of age and placed in plastic pens with plastic feeders and stainless steel waterers. For 56 days lambs were fed feedstuff low in selenium. Jugular blood samples were obtained from all lambs on days 0, 28 and 56. At the end of the 56-day depletion period, lambs were stratified by weight and randomly assigned to […]. The treatments consisted of: 1) Control, 2) sodium selenite, 3) L-selenomethionine and 4) zinc L-selenomethionine. The selenium sources were added to provide 0.05 ppm of supplemental selenium for 28 days and then the amount of selenium from each source was increased to 0.1 ppm for additional 28 days. Blood samples were collected via jugular puncture on days 0, 14, 28 and 56. Whole blood and plasma glutathione peroxidase activity in samples obtained on days 0, 14, 28, and 56. Plasma selenium was measured in samples obtained on days 0, 28, and 56. Six lambs from each treatment were slaughtered at the end of the study and samples of liver, kidney, muscle, and heart were obtained for the determination of selenium and glutathione peroxidase activities.

[2] = Plasma and tissue selenium concentrations in selenium-depleted lambs fed selenium sources; format: in vivo; details: for Relative bioavailability based on tissue selenium concentration, Heart / Relative bioavailability based on tissue selenium concentration, Kidney / Relative bioavailability based on tissue selenium concentration, Liver / Relative bioavailability based on tissue selenium concentration, Muscle: sheep, po, 56 days
Source text: as §1

Solubility in water = format: physicochemical
Experimental: L-Selenomethionine (97.8 mg, 0.5 mmole) was added to water (45 ml) in a 250-ml round bottom flask placed in an ice-bath. The mixture was vigorously stirred by using a magnetic stirrer and a Teflon coated stir-bar. […] Zinc chloride (68.20 mg, 0.5 mmole) was added with continued stirring. A clear solution was immediately formed. The solution was concentrated to dryness at temperature 40° C. under reduced pressure. A hygroscopic colorless solid was formed.

glutathione peroxidase [3] = experiment: Plasma glutathione peroxidase activity in broilers; format: in vivo; details: day 49
Experimental: (§2) One day old male and female birds were used in the study. Male and females were housed separately and randomly assigned to 6 blocks of 8 pens each (4 females and 4 males). The pens contained 50 females or 45 males. Two extra birds were added to each pen at the start of the experiment to allow for mortality and culls. On day 7 the number of birds in each per were adjusted to 50 females and 45 males. Three treatments were assigned to pens using a complete randomized block design. The treatments included: 1) negative control (no additional selenium), 2) sodium selenite, and 3) zinc L-selenomethionine. Birds were housed in concrete floor pens of an environmentally controlled facility. Environmental conditions were similar for all birds in all experimental groups. […] All feed added and removed from pens from day 0 to the end of the study was weighed and recorded. […] The feed intake for each pen was determined by subtracting the amount of feed remaining in the feeder at the end of the study period from the amount of feed weighed into the pen. Average bird weight was calculated on a pen basis. […] Blood was collected in heparinized tubes, plasma was separated and stored at −20° C. until analyzed for selenium and glutathione peroxidase. […] A 100 g sample of the right breast was collected from each bird and stored at −20° C. until analyzed for selenium.

[4] = Tissue selenium concentrations in grow-finish pigs; format: in vivo
Source text: (§3) Sixteen pigs with an average weight of 22.9 kg were stratified by weight within sex and randomly assigned to treatments consisting of 0.3 ppm supplemental selenium from either sodium selenite or zinc L-selenomethionine hydrochloride. Pigs were housed in pens and each treatment consisted of four replicate pens each housed one gilt and one […]. Pigs were fed diets that were formulated to meet NRC requirements. Pigs were fed the growing diet for 56 days and then the finishing diet for 33 days. The average pig weight at the end of the growing and finishing phases was 69.6 and 101.2 kg, respectively. Body weights of each pig were determined initially and at the end of the growing and finishing phases. At the end of the study, pigs were slaughtered and samples of liver, muscle, heart and kidney were collected for selenium determination.

[5] = Performance of grow-finish pigs fed selenium sources; format: in vivo; details: for Feed Intake / Feed/Gain / Gain: 0.3 ppm supplemental selenium
Source text: as §3

[6] = Rumen degradation after ingestion; details: in vivo
[7] = Plasma selenium concentration in broilers; details: both, chicken (broilers), in vivo, 49 days
Experimental: as §2

[8] = Stability of a zinc L-selenomethionine solution on storage (HPLC); format: physicochemical
Experimental: FTIR Identification: A 100 μL of the extract was added to 100 mg of FTIR grade potassium bromide powder and mixed well. The mixer was dried in an oven at 75° C. A pellet was formed and the FTIR spectrum of the sample was recorded. […] (w, weak; m, medium; s, strong; vs, very strong). This spectrum is different than that of L-selenomethionine. Of interest is the absence of the weak to medium band at around 2118 cm^−1 characteristic of free amino acids. HPLC Determination: The concentration of zinc L-selenomethionine in the water extract was determined by HPLC. A Shimadzu instrument composed of SCL-10A-VP Controller, Dual LC-10AD-VP Pumps, SIL-10 Ai Auto sampler, and SCD-10AV-VP UV/Visible Detector set at 210 nm. A Discovery Cyano 5μ column (25 cm×4.6 mm) was used at 25° C. The mobile phase was a 0.1% Glacial acetic Acid at 1.00 mL/min. A 50 μL of the standard or sample solution was injected by the auto sampler. A set of 5 standards were prepared to contain 0.1567, 0.3134, 0.4701, 0.6268, and 0.7835 mg/ml of Zinc L-Selenomethionine. A 100 μL of the sample extract was diluted with 900 μL water and used as sample solution. Standards and sample solutions are filtered through a 2μ filter before injection. Standards and sample contained only a single component with a retention time of 3.975 min. Linear regression was used to construct a correlation graph of area under the peak vs. concentration. The concentration of zinc L-selenomethionine in the sample solution was calculated from the correlation graph and found to be 0.3898 mg/mL corresponding to 18.79% Zinc L-Selenomethionine or 5.67% Selenium in the original Premix.
About 2.0 g of a Zinc L-Selenomethionine Premix 5% Se was accurately weighed and transferred into a 100-ml volumetric flask. Water was added to volume. The flask was stoppered and its contents were mixed vigorously. The mixture was allowed to settle and a sample of the supernatant was removed carefully and filtered through a […]. The concentration of zinc L-selenomethionine in the filtrate was determined by HPLC as described in EXAMPLE 2. Analysis was conducted immediately after the solution was prepared and repeated at 30 days and 90 days after storing at an ambient temperature averaging 18° C. and 50% relative humidity.

C[Se]CC[C@H](N)C(=O)O [L-Selenomethionine, reference compound]
Whole blood glutathione peroxidase activity, difference between selenium sources (glutathione peroxidase [1]): no difference
Plasma glutathione peroxidase activity compared with sodium selenite (glutathione peroxidase [1]): higher
Glutathione peroxidase activities in kidney, liver, and muscle compared to sodium selenite (glutathione peroxidase [1]): higher activities
Relative bioavailability based on glutathione peroxidase activity, Plasma, day 14 (glutathione peroxidase [1]; in vivo): 124
Relative bioavailability based on glutathione peroxidase activity, Plasma, day 28 (glutathione peroxidase [1]; in vivo): 138
Relative bioavailability based on glutathione peroxidase activity, Heart (glutathione peroxidase [1]; in vivo): 107
Relative bioavailability based on glutathione peroxidase activity, Kidney (glutathione peroxidase [1]; in vivo): 100
Relative bioavailability based on glutathione peroxidase activity, Liver (glutathione peroxidase [1]; in vivo): 161
Relative bioavailability based on glutathione peroxidase activity, Muscle (glutathione peroxidase [1]; in vivo): 186
Heart and liver selenium concentrations compared with sodium selenite ([2]; in vivo): higher heart and liver selenium concentrations
Plasma selenium compared with sodium selenite ([2]; in vivo): higher plasma selenium
Relative bioavailability based on tissue selenium concentration, Heart ([2]; in vivo): 139
Relative bioavailability based on tissue selenium concentration, Kidney ([2]; in vivo): 59
Relative bioavailability based on tissue selenium concentration, Liver ([2]; in vivo): 206
Relative bioavailability based on tissue selenium concentration, Muscle ([2]; in vivo): 133
Solubility in water (Solubility in water): did not completely go into solution

O=[Se](O)O [Sodium Selenite, reference compound]
Glutathione Peroxidase Activity (glutathione peroxidase [3]): 14.0
Kidney selenium concentrations, sodium selenite versus zinc L-selenomethionine ([4]; pigs): similar
Plasma selenium concentration, difference between selenium sources ([2]; lambs, day 28): no difference
Feed Intake ([5]; Finishing Phase (33 days)): 2.57 kg
Feed/Gain ([5]; Finishing Phase (33 days)): 2.71
Gain ([5]; Finishing Phase (33 days)): 0.95 kg/day
Feed Intake ([5]; Growing Phase (56 days)): 1.74 kg
Feed/Gain ([5]; Growing Phase (56 days)): 2.15
Gain ([5]; Growing Phase (56 days)): 0.81 kg/day
Feed Intake ([5]; Total): 2.05 kg
Feed/Gain ([5]; Total): 2.38
Gain ([5]; Total): 0.86 kg/day

C[Se]CC[C@@H]1[NH][Zn][O]C1=O [Zn L-Selenomethionine, Zinc L-Selenomethionine Hydrochloride]
Glutathione Peroxidase Activity (glutathione peroxidase [3]): 14.9
Bioavailability compared with sodium selenite and L-selenomethionine (glutathione peroxidase [1]; in vivo): more bioavailabe
Whole blood glutathione peroxidase activity, difference between selenium sources (glutathione peroxidase [1]): no difference
Plasma glutathione peroxidase activity compared with sodium selenite (glutathione peroxidase [1]): higher
Glutathione peroxidase activities in kidney, liver, and muscle compared to sodium selenite (glutathione peroxidase [1]): higher activities
Relative bioavailability based on glutathione peroxidase activity, Plasma, day 14 (glutathione peroxidase [1]; in vivo): 145
Relative bioavailability based on glutathione peroxidase activity, Plasma, day 28 (glutathione peroxidase [1]; in vivo): 149
Relative bioavailability based on glutathione peroxidase activity, Heart (glutathione peroxidase [1]; in vivo): 126
Relative bioavailability based on glutathione peroxidase activity, Kidney (glutathione peroxidase [1]; in vivo): 128
Relative bioavailability based on glutathione peroxidase activity, Liver (glutathione peroxidase [1]; in vivo): 152
Relative bioavailability based on glutathione peroxidase activity, Muscle (glutathione peroxidase [1]; in vivo): 200
Kidney selenium concentrations, sodium selenite versus zinc L-selenomethionine ([4]; pig, in vivo): similar
Selenium concentrations in liver, muscle and heart compared with sodium selenite ([4]; pig, in vivo): higher selenium concentrations
Heart and liver selenium concentrations compared with sodium selenite ([2]; in vivo): higher heart and liver selenium concentrations
Plasma selenium compared with sodium selenite ([2]; lambs, day 56): higher plasma selenium
Relative bioavailability based on tissue selenium concentration, Heart ([2]; in vivo): 158
Relative bioavailability based on tissue selenium concentration, Kidney ([2]; in vivo): 74
Relative bioavailability based on tissue selenium concentration, Liver ([2]; in vivo): 160
Relative bioavailability based on tissue selenium concentration, Muscle ([2]; in vivo): 85
Rumen degradation after ingestion [6]: resistant to rumen degradation
Plasma Selenium Concentration [7]: 0.177 ppm
Stability of the water solution on storage [8]: stable on storage
Concentration of zinc L-selenomethionine in the solution ([8]; after 30 days at ambient temperature averaging 18° C. and 50% relative humidity): 18.89%
Concentration of zinc L-selenomethionine in the solution ([8]; after 90 days at ambient temperature averaging 18° C. and 50% relative humidity): 18.78%
Concentration of zinc L-selenomethionine in the solution ([8]; day of preparation, solution of Premix 5% Se in water): 18.95%
Change of concentration of zinc L-selenomethionine in the solution ([8]; thirty day storage at ambient temperature and humidity): less than 0.5%
Gain/feed ratio compared with sodium selenite [5]: higher
Feed Intake ([5]; Finishing Phase (33 days)): 2.22 kg
Feed/Gain ([5]; Finishing Phase (33 days)): 2.31
Gain ([5]; Finishing Phase (33 days)): 0.96 kg/day
Feed Intake ([5]; Growing Phase (56 days)): 1.86 kg
Feed/Gain ([5]; Growing Phase (56 days)): 2.16
Gain ([5]; Growing Phase (56 days)): 0.86 kg/day
Feed Intake ([5]; Total): 2.00 kg
Feed/Gain ([5]; Total): 2.22
Gain ([5]; Total): 0.90 kg/day
Feed consumed compared with sodium selenite ([5]; finishing phase): consumed less feed

C[Se]C[C@H](N)C(=O)O.Cl.[Zn] [zinc Se-methyl-L-selenocysteine complex, Zinc L-Se-Methylselenocysteine Hydrochloride]
Solubility in water (Solubility in water): readily soluble in water
Stability of the water solution on storage [8]: stable solution
